Consider 23 compounds from patent US11925629B2, “Heterocyclic inhibitors of ERK1 and ERK2 and their use in the treatment of cancer” (Asana Biosciences, LLC, priority 2015, dated 2024).

Format in all cases: cell-based, human
Assay [1] relates to HT-29 (colorectal carcinoma, B-RafV600E) cells. Nature of the assay: Cell proliferation (Alamar Blue) assay, HT-29. As to conditions: Homo sapiens, HT-29, HT29 cells. The gist of the method:
(§1)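 IC50 values derive from variable-slope sigmoidal fits of Alamar Blue fluorescence (540 nm excitation, 590 nm emission, 1-3 h dye incubation). Compound treatment ran 72 h at 37° C./5% CO2 over roughly 0.0005-10 uM in 3-fold steps, on cells plated at 5000/well and pre-incubated 16-24 h.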
(The colour change of resazurin is a common sign of viable cells or microbes.)

Assay [2] concerns HCT116 (colorectal carcinoma, K Ras G13D) cells. Description: Cell proliferation (Alamar Blue) assay, HCT116. The settings on record: Homo sapiens, HCT-116, HCT116 cells. The gist of the method: as §1
Assay [3] has as its system phosphorylation of RSK1(S380) (the downstream target of ERK1/2). Nature of the assay: Phospho-RSK1(S380) ELISA assay in HT-29 cells. The settings on record: Homo sapiens, HT-29, HT29 cells, phospho-RSK1(S380); read-out: Mechanistic Cell Assay RSK1 Phos HT29 IC50. Summed up:
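HT-29 colorectal carcinoma cells (B-RafV600E), plated overnight at 37° C./5% CO2, were treated with compound dilutions for 2 h. Lysates were analysed by phospho-RSK1(Ser380) sandwich ELISA with absorbance at 450 nm. IC50 came from a sigmoidal variable-slope dose-response fit.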
On the technique in general: An ELISA detects its analyte on a solid surface through an enzyme-linked reagent.

Take `Cc1cnc(Nc2ccc3c(c2)OC(F)(F)O3)nc1-n1ccc(C(=O)NC(CO)c2cccc(Cl)c2)c1` (stereo not drawn) [Example 62, N-(1-(3-chloro-phenyl)-2-hydroxy-ethyl)-1-(2-((2,2-difluoro-benzo[d][1,3]dioxol-5-yl)amino)-5-methyl-pyrimidin-4-yl)-1H-pyrrole-3-carboxamide]: the IC50 in assay [1], in assay [2] and in assay [3] was 500 to 2500 nM each time.
As to `Cc1cnc(Nc2ccc3c(c2)OC(F)(F)O3)nc1-n1ccc(C(=O)NC(CO)c2ccccc2)c1` (stereo not drawn) [Example 63, 1-(2-((2,2-difluoro-benzo[d][1,3]dioxol-5-yl)amino)-5-methyl-pyrimidin-4-yl)-N-(2-hydroxy-1-phenylethyl)-1H-pyrrole-3-carboxamide], the IC50 was 500 to 2500 nM in assay [1], 500 to 2500 nM in assay [2] and 250 to 500 nM in assay [3].
Consider `COC[C@@H](NC(=O)c1ccn(-c2nc(Nc3ccc4c(c3)OCO4)ncc2C)c1)c1ccccc1` [Example 64, (S)-1-(2-(benzo[d][1,3]dioxol-5-ylamino)-5-methyl-pyrimidin-4-yl)-N-(2-methoxy-1-phenylethyl)-1H-pyrrole-3-carboxamide], for which the IC50 is 250 to 500 nM in assay [1], 500 to 2500 nM in assay [2] and 500 to 2500 nM in assay [3].
Turning to `Cc1cnc(Nc2ccc3occc3c2)nc1-n1ccc(C(=O)NC(CO)c2ccccc2)c1` (stereo not drawn) [Example 65, 1-(2-(benzo-furan-5-ylamino)-5-methyl-pyrimidin-4-yl)-N-(2-hydroxy-1-phenylethyl)-1H-pyrrole-3-carboxamide], the half-maximal inhibitory concentration (IC50) in assay [1] was 100 to 250 nM; in assay [2], 100 to 250 nM; in assay [3] it was no more than 100 nM.
Turning to `O=C(NC(CO)c1ccccc1)c1ccn(-c2nc(Nc3ccc4c(c3)OCO4)ncc2F)c1` (stereo not drawn) [Example 66, 1-(2-(benzo[d][1,3]dioxol-5-ylamino)-5-fluoro-pyrimidin-4-yl)-N-(2-hydroxy-1-phenylethyl)-1H-pyrrole-3-carboxamide], the half-inhibitory concentration (IC50) in assay [1] lay in the range of 250 to 500 nM; in assay [2], 500 to 2500 nM; in assay [3], 100 to 250 nM.
On the same counts, the results for `O=C(NC(CO)c1ccccc1)c1ccn(-c2nc(Nc3ccccc3Cl)ncc2F)c1` (stereo not drawn) [Example 67, 1-(2-((2-chloro-phenyl)amino)-5-fluoro-pyrimidin-4-yl)-N-(2-hydroxy-1-phenylethyl)-1H-pyrrole-3-carboxamide] are greater than 2500 nM, greater than 2500 nM and 500 to 2500 nM.
As to `Cc1cnc(Nc2ccc3c(c2)OC(F)(F)O3)nc1-n1ccc(C(=O)N[C@H](CO)c2ccc(F)c(Cl)c2)c1` [Example 69, (S)-N-(1-(3-chloro-4-fluoro-phenyl)-2-hydroxy-ethyl)-1-(2-((2,2-difluoro-benzo[d][1,3]dioxol-5-yl)amino)-5-methyl-pyrimidin-4-yl)-1H-pyrrole-3-carboxamide], the IC50 in assay [1], in assay [2] and in assay [3] was 500 to 2500 nM each time.
`Cc1cnc(Nc2ccc3c(c2)OCO3)nc1-n1ccc(C(=O)NC(CO)c2cccc(Cl)c2F)c1` (stereo not drawn) [Example 70, 1-(2-(benzo[d][1,3]dioxol-5-ylamino)-5-methyl-pyrimidin-4-yl)-N-(1-(3-chloro-2-fluorophenyl)-2-hydroxy-ethyl)-1H-pyrrole-3-carboxamide]: the IC50 in assay [1] is greater than 2500 nM; in assay [2] it was 500 to 2500 nM; in assay [3], 250 to 500 nM.
On the same counts, the results for `O=C(NC(CO)c1ccccc1)c1ccn(-c2ccnc(Nc3ccccc3)c2)c1` (stereo not drawn) [Example 71, N-(2-hydroxy-1-phenylethyl)-1-(2-(phenylamino)pyridin-4-yl)-1H-pyrrole-3-carboxamide] are 500 to 2500 nM, greater than 2500 nM and 250 to 500 nM.
On the same counts, the results for `O=C(N[C@H](CO)c1cccc(Cl)c1)c1cn(-c2ccnc(Nc3ccccc3)c2)cn1` [Example 72, (S)-N-(1-(3-chlorophenyl)-2-hydroxy-ethyl)-1-(2-(phenylamino)pyridin-4-yl)-1H-imidazole-4-carboxamide] are 500 to 2500 nM, greater than 2500 nM and no more than 100 nM.
On the same counts, the results for `Cc1cnc(Nc2ccc(N3CCNCC3)cc2)nc1-n1ccc(C(=O)NC(CO)c2ccccc2)c1` (stereo not drawn) [Example 73, N-(2-hydroxy-1-phenylethyl)-1-(5-methyl-2-((4-(piperazin-1-yl)-phenyl)amino)pyrimidin-4-yl)-1H-pyrrole-3-carboxamide] are 500 to 2500 nM, 500 to 2500 nM and greater than 2500 nM.
Turning to `CC[C@@H](CO)Nc1ncc(C)c(-n2ccc(C(=O)NC(CO)c3ccccc3)c2)n1` (stereo partly drawn) [Example 75, N-(2-hydroxy-1-phenylethyl)-1-(2-(((S)-1-hydroxy-butan-2-yl)amino)-5-methyl-pyrimidin-4-yl)-1H-pyrrole-3-carboxamide], the figures for the half-maximal inhibitory concentration (IC50) in assay [1], in assay [2] and in assay [3] were 500 to 2500 nM, greater than 2500 nM and 500 to 2500 nM, respectively.
For the compound `O=C(NC(CO)c1ccccc1)c1ccn(-c2ccnc(Nc3ccc4c(c3)OCO4)c2)c1` (stereo not drawn) [Example 76, 1-(2-(benzo[d][1,3]dioxol-5-ylamino)pyridin-4-yl)-N-(2-hydroxy-1-phenylethyl)-1H-pyrrole-3-carboxamide], the results for the concentration for half-maximal inhibition (IC50) in assay [1], in assay [2] and in assay [3] were 500 to 2500 nM, greater than 2500 nM and 250 to 500 nM, respectively.
On to `Cc1cnc(Nc2ccc3c(c2)OC(F)(F)O3)cc1-n1ccc(C(=O)NC(CO)c2ccccc2)c1` (stereo not drawn) [Example 80, 1-(2-((2,2-difluorobenzo [d][1,3]dioxol-5-yl)-amino)-5-methyl-pyridin-4-yl)-N-(2-hydroxy-1-phenyl-ethyl)-1H-pyrrole-3-carboxamide], for which the IC50 in assay [1], in assay [2] and in assay [3] was greater than 2500 nM throughout.
Take `Cc1cnc(Nc2ccc3c(c2)OCO3)nc1-n1ccc(C(=O)N[C@H](CO)c2ccc(F)c(Cl)c2)c1` [Example 87, (S)-1-(2-(benzo[d][1,3]dioxol-5-ylamino)-5-methyl-pyrimidin-4-yl)-N-(1-(3-chloro-4-fluorophenyl)-2-hydroxy-ethyl)-1H-pyrrole-3-carboxamide]: the half-maximal inhibitory concentration (IC50) fell in the range of 250 to 500 nM in assay [1], 500 to 2500 nM in assay [2] and 100 to 250 nM in assay [3].
On the same counts, the results for `Cc1cnc(Nc2ccc(F)cc2Cl)cc1-n1ccc(C(=O)NC(CO)c2cccc(Cl)c2)c1` (stereo not drawn) [Example 91, 1-(2-((2-chloro-4-fluorophenyl)amino)-5-methyl-pyridin-4-yl)-N-(1-(3-chlorophenyl)-2-hydroxy-ethyl)-1H-pyrrole-3-carboxamide] are 500 to 2500 nM, greater than 2500 nM and 500 to 2500 nM.
Taken in the same sequence, the figures for `Cc1cnc(Nc2ccc3c(c2)OC(C)(C)O3)nc1-n1ccc(C(=O)NC(CO)c2ccccc2)c1` (stereo not drawn) [Example 95, 1-(2-((2,2-dimethyl-benzo[d][1,3]dioxol-5-yl)-amino)-5-methyl-pyrimidin-4-yl)-N-(2-hydroxy-1-phenylethyl)-1H-pyrrole-3-carboxamide] were 250 to 500 nM, 500 to 2500 nM and 250 to 500 nM.
Taken in the same sequence, the figures for `Cc1cnc(Nc2ccc3c(c2)OC(C)(C)O3)nc1-n1ccc(C(=O)NC(CO)c2cccc(Cl)c2)c1` (stereo not drawn) [Example 96, N-(1-(3-chloro-phenyl)-2-hydroxy-ethyl)-1-(2-((2,2-dimethyl-benzo[d][1,3]dioxol-5-yl)amino)-5-methyl-pyrimidin-4-yl)-1H-pyrrole-3-carboxamide] were 250 to 500 nM, 500 to 2500 nM and 250 to 500 nM.
As for `CC[C@@H](CO)Nc1cc(-n2ccc(C(=O)NC(CO)c3ccccc3)c2)c(C)cn1` (stereo partly drawn) [Example 100, N-(2-hydroxy-1-phenyl-ethyl)-1-(2-(((S)-1-hydroxy-butan-2-yl)amino)-5-methyl-pyridin-4-yl)-1H-pyrrole-3-carboxamide], the figures for the IC50 in assay [1], in assay [2] and in assay [3] were greater than 2500 nM, greater than 2500 nM and 250 to 500 nM, respectively.
As to `Cc1cn(-c2nc(Nc3ccc(F)cc3)ncc2C)cc1C(=O)NC(CO)c1cccc(Cl)c1` (stereo not drawn) [Example 107, N-(1-(3-chlorophenyl)-2-hydroxy-ethyl)-1-(2-((4-fluoro-phenyl)amino)-5-methyl-pyrimidin-4-yl)-4-methyl-1H-pyrrole-3-carboxamide], the IC50 in assay [1], in assay [2] and in assay [3] was 500 to 2500 nM throughout.
`CC[C@@H](CO)Nc1cc(-n2ccc(C(=O)NC(CO)c3cccc(Cl)c3)c2)ccn1` (stereo partly drawn) [Example 109, N-(1-(3-chloro-phenyl)-2-hydroxy-ethyl)-1-(2-(((S)-1-hydroxy-butan-2-yl)amino)pyridin-4-yl)-1H-pyrrole-3-carboxamide]: the 50% inhibitory concentration (IC50) in assay [1] is greater than 2500 nM; in assay [2], greater than 2500 nM; in assay [3], 250 to 500 nM.
As to `Cc1cn(-c2ccnc(Nc3ccc(F)cc3)n2)cc1C(=O)NC(CO)c1cccc(Cl)c1` (stereo not drawn) [Example 110, N-(1-(3-chloro-phenyl)-2-hydroxy-ethyl)-1-(2-((4-fluoro-phenyl)-amino)pyrimidin-4-yl)-4-methyl-1H-pyrrole-3-carboxamide], the IC50 in assay [1], in assay [2] and in assay [3] was greater than 2500 nM each time.
Take `Cc1cnc(Nc2ccc(F)cc2)nc1-n1ccc(C(=O)NC(CO)c2cccc(Cl)c2)c1` (stereo not drawn) [Example 113, N-(1-(3-chloro-phenyl)-2-hydroxy-ethyl)-1-(2-((4-fluoro-phenyl)amino)-5-methyl-pyrimidin-4-yl)-1H-pyrrole-3-carboxamide]: the IC50 in assay [1], in assay [2] and in assay [3] was 100 to 250 nM each time.

Usually IC50 stands for the point on the concentration scale where inhibition reaches its midpoint.
